The structures appear in SMILES notation.

The data set has as its system artificial myocardial structure (cardiac organoid). Description: Contractile force-based cardiac toxicity assessment of drug-treated artificial myocardial structure. The format is cell-based. To be noted: FIG. 15. From the text:
Furthermore, after additionally treating an artificial myocardial structure prepared by coculturing gelatin oil capsules and cardiomyocytes with various drugs, contractile forces of the drug-treated artificial myocardial structure were checked.

Turning to `COc1ccc(CCN(C)CCCC(C#N)(c2ccc(OC)c(OC)c2)C(C)C)cc1OC` (stereo not drawn) [verapamil], the beat rates entry (125 nM) was “slow down and become somewhat irregular”.
With `CC(C)NCC(O)c1ccc(O)c(O)c1` (stereo not drawn) [Isopreterenol], where the note is “10 nM”, the beat rates result is reported as “accelerated” and the contractile forces entry was “changed strongly”.

The values are drawn from patent publication US20210395676A1, “CARRIER FOR CELL CULTURE COMPRISING MICROCAPSULES CONTAINING NATURAL OIL” (Korea Research Institute of Chemical Technology, priority 2018, published 2021).
